Several values for one entry are separate records, joined by “and”; a condition that tells them apart may be missing. Equal values may be shown once. Inconclusive results and toxic doses are left out.
System: P388 leukemia ip, CD2F1 mice, survival T/C
Assay: NCI In Vivo Anticancer Drug Screen. Data for tumor model P388 Leukemia (intraperitoneal) in CD2F1 (CDF1) mice
Conditions: endpoint: median survival time, higher = longer survival
In short: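 Mice carrying the transplanted tumor received test compound or vehicle. Survival was recorded in each group, and the value is the treated-group measurement divided by that of the vehicle-treated control group.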

O=C1c2c(O)ccc(O)c2C(=O)c2c(NCCNCCO)ccc(NCCNCCO)c21
T/C (dose: 0.02 mg/kg/injection, schedule: Q04DX003 (ip), vehicle: saline): 120 % of control | T/C (dose: 0.06 mg/kg/injection, schedule: Q01DX009 (ip), vehicle: saline): 175 % of control and 208 % of control | T/C (dose: 0.06 mg/kg/injection, schedule: Q04DX003 (ip), vehicle: saline): 218 % of control | T/C (dose: 0.12 mg/kg/injection, schedule: Q01DX009 (ip), vehicle: acid diluted with saline): 179 % of control and 190 % of control | T/C (dose: 0.12 mg/kg/injection, schedule: Q01DX009 (ip), vehicle: other): 165 % of control | T/C (dose: 0.12 mg/kg/injection, schedule: Q01DX009 (ip), vehicle: saline): 200 % of control and 220 % of control | T/C (dose: 0.12 mg/kg/injection, schedule: Q04DX003 (ip), vehicle: saline): 160 % of control | T/C (dose: 0.13 mg/kg/injection, schedule: Q01DX009 (ip), vehicle: acid diluted with saline): 150 % of control and 176 % of control | T/C (dose: 0.2 mg/kg/injection, schedule: Q01DX009 (ip), vehicle: acid diluted with saline): 250 % of control | T/C (dose: 0.2 mg/kg/injection, schedule: Q01DX009 (ip), vehicle: water): 172 % of control | T/C (dose: 0.25 mg/kg/injection, schedule: Q01DX005 (ip), vehicle: acid diluted with saline): 270 % of control | T/C (dose: 0.25 mg/kg/injection, schedule: Q04DX003 (ip), vehicle: saline): 182 % of control | T/C (dose: 0.32 mg/kg/injection, schedule: Q01DX009 (ip), vehicle: acid diluted with saline): 225 % of control | T/C (dose: 0.32 mg/kg/injection, schedule: Q01DX009 (sc), vehicle: acid diluted with saline): 122 % of control | T/C (dose: 0.39 mg/kg/injection, schedule: Q01DX009 (ip), vehicle: acid diluted with saline): 272 % of control | T/C (dose: 0.39 mg/kg/injection, schedule: Q01DX009 (ip), vehicle: water): 245 % of control | T/C (dose: 0.5 mg/kg/injection, schedule: Q01DX005 (ip), vehicle: acid diluted with saline): 270 % of control | T/C (dose: 0.5 mg/kg/injection, schedule: Q01DX005 (iv), vehicle: acid diluted with saline): 99 % of control | T/C (dose: 0.5 mg/kg/injection, schedule: Q01DX009 (ip), vehicle: other): 238 % of control and 333 % of control | T/C (dose: 0.5 mg/kg/injection, schedule: Q04DX003 (ip), vehicle: saline): 179 % of control | T/C (dose: 0.54 mg/kg/injection, schedule: Q01DX009 (ip), vehicle: acid diluted with saline): 234 % of control | T/C (dose: 0.54 mg/kg/injection, schedule: Q01DX009 (sc), vehicle: acid diluted with saline): 153 % of control | T/C (dose: 0.75 mg/kg/injection, schedule: Q04DX002 (ip), vehicle: acid diluted with saline): 209 % of control | T/C (dose: 0.75 mg/kg/injection, schedule: Q04DX003 (ip), vehicle: acid diluted with saline): 123 % of control | T/C (dose: 0.78 mg/kg/injection, schedule: Q01DX009 (ip), vehicle: water): 271 % of control | T/C (dose: 0.78 mg/kg/injection, schedule: Q04DX003 (ip), vehicle: acid diluted with saline): 409 % of control | T/C (dose: 0.9 mg/kg/injection, schedule: Q01DX009 (ip), vehicle: acid diluted with saline): 405 % of control | T/C (dose: 0.9 mg/kg/injection, schedule: Q01DX009 (sc), vehicle: acid diluted with saline): 216 % of control | T/C (dose: 1.0 mg/kg/injection, schedule: Q01DX005 (ip), vehicle: acid diluted with saline): 270 % of control | T/C (dose: 1.0 mg/kg/injection, schedule: Q04DX003 (ip), vehicle: saline): 151 % of control and 188 % of control and 208 % of control | T/C (dose: 1.04 mg/kg/injection, schedule: Q04DX003 (ip), vehicle: acid diluted with saline): 252 % of control | T/C (dose: 1.04 mg/kg/injection, schedule: Q04DX003 (iv), vehicle: acid diluted with saline): 162 % of control | T/C (dose: 1.08 mg/kg/injection, schedule: Q01DX009 (ip), vehicle: acid diluted with saline): 409 % of control | T/C (dose: 1.3 mg/kg/injection, schedule: Q04DX003 (ip), vehicle: acid diluted with saline): 302 % of control | T/C (dose: 1.5 mg/kg/injection, schedule: Q01DX009 (ip), vehicle: acid diluted with saline): 405 % of control | T/C (dose: 1.5 mg/kg/injection, schedule: Q01DX009 (sc), vehicle: acid diluted with saline): 272 % of control | T/C (dose: 1.5 mg/kg/injection, schedule: Q04DX002 (ip), vehicle: acid diluted with saline): 176 % of control and 201 % of control | T/C (dose: 1.56 mg/kg/injection, schedule: Q01DX009 (ip), vehicle: water): 218 % of control | T/C (dose: 1.73 mg/kg/injection, schedule: Q04DX003 (ip), vehicle: acid diluted with saline): 333 % of control | T/C (dose: 1.73 mg/kg/injection, schedule: Q04DX003 (iv), vehicle: acid diluted with saline): 227 % of control | T/C (dose: 1.8 mg/kg/injection, schedule: Q01DX009 (ip), vehicle: acid diluted with saline): 225 % of control | T/C (dose: 2.0 mg/kg/injection, schedule: Q01DX009 (ip), vehicle: other): 207 % of control | T/C (dose: 2.0 mg/kg/injection, schedule: Q04DX003 (ip), vehicle: saline): 164 % of control and 172 % of control and 207 % of control | T/C (dose: 2.5 mg/kg/injection, schedule: Q01DX009 (ip), vehicle: acid diluted with saline): 180 % of control | T/C (dose: 2.88 mg/kg/injection, schedule: Q04DX003 (ip), vehicle: acid diluted with saline): 333 % of control | T/C (dose: 3.0 mg/kg/injection, schedule: Q01DX001 (ip), vehicle: acid diluted with saline): 333 % of control | T/C (dose: 3.0 mg/kg/injection, schedule: Q01DX009 (ip), vehicle: acid diluted with saline): 102 % of control | T/C (dose: 3.0 mg/kg/injection, schedule: Q04DX002 (ip), vehicle: acid diluted with saline): 260 % of control and 288 % of control | T/C (dose: 3.24 mg/kg/injection, schedule: Q01DX001 (iv), vehicle: acid diluted with saline): 178 % of control | T/C (dose: 3.3 mg/kg/injection, schedule: Q01DX001 (ip), vehicle: acid diluted with saline): 247 % of control | T/C (dose: 4.0 mg/kg/injection, schedule: Q01DX001 (ip), vehicle: acid diluted with saline): 187 % of control | T/C (dose: 4.0 mg/kg/injection, schedule: Q01DX001 (iv), vehicle: acid diluted with saline): 117 % of control | T/C (dose: 4.0 mg/kg/injection, schedule: Q01DX009 (ip), vehicle: other): 99 % of control | T/C (dose: 4.0 mg/kg/injection, schedule: Q04DX003 (ip), vehicle: saline): 166 % of control and 223 % of control and 233 % of control | T/C (dose: 4.4 mg/kg/injection, schedule: Q01DX001 (ip), vehicle: acid diluted with saline): 229 % of control | T/C (dose: 4.8 mg/kg/injection, schedule: Q04DX003 (ip), vehicle: acid diluted with saline): 180 % of control | T/C (dose: 5.0 mg/kg/injection, schedule: Q01DX001 (ip), vehicle: other): 250 % of control | T/C (dose: 5.4 mg/kg/injection, schedule: Q01DX001 (ip), vehicle: acid diluted with saline): 405 % of control | T/C (dose: 5.4 mg/kg/injection, schedule: Q01DX001 (iv), vehicle: acid diluted with saline): 270 % of control | T/C (dose: 6.0 mg/kg/injection, schedule: Q04DX002 (ip), vehicle: acid diluted with saline): 192 % of control and 260 % of control | T/C (dose: 6.7 mg/kg/injection, schedule: Q01DX001 (ip), vehicle: acid diluted with saline): 293 % of control | T/C (dose: 8.0 mg/kg/injection, schedule: Q01DX001 (ip), vehicle: acid diluted with saline): 171 % of control | T/C (dose: 8.0 mg/kg/injection, schedule: Q01DX001 (iv), vehicle: acid diluted with saline): 198 % of control | T/C (dose: 8.0 mg/kg/injection, schedule: Q04DX003 (ip), vehicle: acid diluted with saline): 107 % of control | T/C (dose: 8.0 mg/kg/injection, schedule: Q04DX003 (ip), vehicle: saline): 164 % of control and 232 % of control | T/C (dose: 8.0 mg/kg/injection, schedule: Q04DX003 (iv), vehicle: acid diluted with saline): 99 % of control | T/C (dose: 9.0 mg/kg/injection, schedule: Q01DX001 (ip), vehicle: acid diluted with saline): 261 % of control | T/C (dose: 9.0 mg/kg/injection, schedule: Q01DX001 (iv), vehicle: acid diluted with saline): 405 % of control | T/C (dose: 10.0 mg/kg/injection, schedule: Q04DX003 (ip), vehicle: acid diluted with saline): 180 % of control | T/C (dose: 12.0 mg/kg/injection, schedule: Q04DX002 (ip), vehicle: acid diluted with saline): 118 % of control | T/C (dose: 15.0 mg/kg/injection, schedule: Q01DX001 (ip), vehicle: other): 302 % of control | T/C (dose: 15.0 mg/kg/injection, schedule: Q01DX001 (iv), vehicle: acid diluted with saline): 405 % of control | T/C (dose: 16.0 mg/kg/injection, schedule: Q01DX001 (ip), vehicle: acid diluted with saline): 173 % of control | T/C (dose: 16.0 mg/kg/injection, schedule: Q01DX001 (iv), vehicle: acid diluted with saline): 101 % of control | T/C (dose: 16.0 mg/kg/injection, schedule: Q04DX003 (ip), vehicle: saline): 101 % of control and 117 % of control | T/C (dose: 25.0 mg/kg/injection, schedule: Q01DX001 (ip), vehicle: acid diluted with saline): 225 % of control | T/C (dose: 32.0 mg/kg/injection, schedule: Q01DX001 (ip), vehicle: acid diluted with saline): 270 % of control | T/C (dose: 32.0 mg/kg/injection, schedule: Q04DX003 (ip), vehicle: saline): 100 % of control | T/C (dose: 64.0 mg/kg/injection, schedule: Q01DX001 (ip), vehicle: acid diluted with saline): 270 % of control | T/C (dose: 7.0 micrograms/kg/injection, schedule: Q04DX003 (ip), vehicle: saline): 107 % of control | T/C (dose: 15.0 micrograms/kg/injection, schedule: Q04DX003 (ip), vehicle: saline): 107 % of control | T/C (dose: 31.0 micrograms/kg/injection, schedule: Q04DX003 (ip), vehicle: saline): 120 % of control

— PubChem BioAssay AID330 (DTP/NCI, 2004)
